In ChEMBL document CHEMBL4507269, “Data for DCP probe BAY-386” (2021):

How the values were obtained:
[1] = molecular target: T1, Adenosine receptor A2b (Homo sapiens) (UniProt P29275); assay: A2B (h) Eurofins-Cerep Cellular and Nuclear Receptor Functional Assays; conditions: Compound concentration 10.0 uM
T1 sequence (whole entry): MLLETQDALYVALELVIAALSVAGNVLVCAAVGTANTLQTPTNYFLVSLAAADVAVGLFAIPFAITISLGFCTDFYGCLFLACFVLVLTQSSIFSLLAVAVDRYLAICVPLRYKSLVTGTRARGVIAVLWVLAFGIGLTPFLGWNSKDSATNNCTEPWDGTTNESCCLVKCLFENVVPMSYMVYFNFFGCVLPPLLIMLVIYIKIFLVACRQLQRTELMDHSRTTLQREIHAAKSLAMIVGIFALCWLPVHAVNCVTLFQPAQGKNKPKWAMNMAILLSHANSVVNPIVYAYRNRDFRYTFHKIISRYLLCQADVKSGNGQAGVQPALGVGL

[2] = molecular target: D(2) dopamine receptor (Homo sapiens) (UniProt P14416); assay: D2s (h) Eurofins-Cerep Cellular and Nuclear Receptor Functional Assays; conditions: Compound concentration 10.0 uM
[3] = molecular target: Histamine H3 receptor (Homo sapiens) (UniProt Q9Y5N1); assay: H3 (h) Eurofins-Cerep Cellular and Nuclear Receptor Functional Assays; conditions: Compound concentration 10.0 uM
[4] = molecular target: Substance-P receptor (Homo sapiens) (UniProt P25103); assay: NK1 (h) Eurofins-Cerep Cellular and Nuclear Receptor Functional Assays; conditions: Compound concentration 10.0 uM
[5] = molecular target: T2, Prostaglandin E2 receptor EP3 subtype (Homo sapiens) (UniProt P43115); assay: EP3 (h) Eurofins-Cerep Cellular and Nuclear Receptor Functional Assays; conditions: Compound concentration 10.0 uM
T2 sequence (whole entry): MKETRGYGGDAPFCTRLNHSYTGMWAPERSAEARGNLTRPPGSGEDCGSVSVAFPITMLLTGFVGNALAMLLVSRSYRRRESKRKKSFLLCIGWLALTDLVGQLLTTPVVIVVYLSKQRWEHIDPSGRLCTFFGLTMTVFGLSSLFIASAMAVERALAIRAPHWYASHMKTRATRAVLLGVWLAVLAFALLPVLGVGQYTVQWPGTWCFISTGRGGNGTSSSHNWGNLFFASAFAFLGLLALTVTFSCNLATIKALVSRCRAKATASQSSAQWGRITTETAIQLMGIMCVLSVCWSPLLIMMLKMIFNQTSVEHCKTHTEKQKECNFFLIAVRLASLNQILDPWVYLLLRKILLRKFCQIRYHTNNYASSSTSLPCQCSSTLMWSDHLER

[6] = tested on: Tyrosine-protein kinase ABL1 (Homo sapiens), P00519 [T315I]; conditions: Compound concentration 1000.0 nM
[7] = molecular target: Activin receptor type-1 (Homo sapiens) (UniProt Q04771); conditions: Compound concentration 1000.0 nM
[8] = molecular target: Activin receptor type-1B (Homo sapiens) (UniProt P36896); conditions: Compound concentration 1000.0 nM
[9] = tested on: ALK tyrosine kinase receptor (Homo sapiens), Q9UM73 [C1156Y]; conditions: Compound concentration 1000.0 nM
[10] = molecular target: Aurora kinase A (Homo sapiens) (UniProt O14965); conditions: Compound concentration 1000.0 nM
[11] = molecular target: Calcium/calmodulin-dependent protein kinase type II subunit alpha (Homo sapiens) (UniProt Q9UQM7); conditions: Compound concentration 1000.0 nM
[12] = molecular target: Calcium/calmodulin-dependent protein kinase kinase 1 (Homo sapiens) (UniProt Q8N5S9); conditions: Compound concentration 1000.0 nM
[13] = molecular target: Cyclin-dependent kinase 4 (Homo sapiens) (UniProt P11802); conditions: Compound concentration 1000.0 nM
[14] = molecular target: Dual specificity protein kinase CLK1 (Homo sapiens) (UniProt P49759); conditions: Compound concentration 1000.0 nM
[15] = molecular target: Casein kinase II subunit alpha (Homo sapiens) (UniProt P68400); conditions: Compound concentration 1000.0 nM
[16] = molecular target: Casein kinase II subunit alpha' (Homo sapiens) (UniProt P19784); conditions: Compound concentration 1000.0 nM
[17] = molecular target: Epithelial discoidin domain-containing receptor 1 (Homo sapiens) (UniProt Q08345); conditions: Compound concentration 1000.0 nM
[18] = tested on: Epidermal growth factor receptor (Homo sapiens), P00533 [G719C]; conditions: Compound concentration 1000.0 nM
[19] = molecular target: Receptor tyrosine-protein kinase erbB-2 (Homo sapiens) (UniProt P04626); conditions: Compound concentration 1000.0 nM
[20] = molecular target: Mitogen-activated protein kinase 1 (Homo sapiens) (UniProt P28482); conditions: Compound concentration 1000.0 nM
[21] = tested on: Receptor-type tyrosine-protein kinase FLT3 (Homo sapiens), P36888 [N841I]; conditions: Compound concentration 1000.0 nM
[22] = tested on: Mast/stem cell growth factor receptor Kit (Homo sapiens), P10721 [L576P]; conditions: Compound concentration 1000.0 nM
[23] = molecular target: Myosin light chain kinase family member 4 (Homo sapiens) (UniProt Q86YV6); conditions: Compound concentration 1000.0 nM
[24] = molecular target: Myosin-IIIb (Homo sapiens) (UniProt Q8WXR4); conditions: Compound concentration 1000.0 nM
[25] = molecular target: Serine/threonine-protein kinase Nek4 (Homo sapiens) (UniProt P51957); conditions: Compound concentration 1000.0 nM
[26] = molecular target: Mitogen-activated protein kinase kinase kinase 14 (Homo sapiens) (UniProt Q99558); conditions: Compound concentration 1000.0 nM
[27] = molecular target: Serine/threonine-protein kinase OSR1 (Homo sapiens) (UniProt O95747); conditions: Compound concentration 1000.0 nM
[28] = molecular target: Serine/threonine-protein kinase pim-2 (Homo sapiens) (UniProt Q9P1W9); conditions: Compound concentration 1000.0 nM
[29] = molecular target: Protein kinase C eta type (Homo sapiens) (UniProt P24723); conditions: Compound concentration 1000.0 nM
[30] = molecular target: Serine/threonine-protein kinase D3 (Homo sapiens) (UniProt O94806); conditions: Compound concentration 1000.0 nM
[31] = molecular target: Ribosomal protein S6 kinase alpha-3 (Homo sapiens) (UniProt P51812); conditions: Compound concentration 1000.0 nM
[32] = molecular target: Testis-specific serine/threonine-protein kinase 1 (Homo sapiens) (UniProt Q9BXA7); conditions: Compound concentration 1000.0 nM
[33] = molecular target: 5-hydroxytryptamine receptor 7 (Homo sapiens) (UniProt P34969); conditions: Compound concentration 10.0 uM
[34] = molecular target: Alpha-2C adrenergic receptor (Homo sapiens) (UniProt P18825); conditions: Compound concentration 10.0 uM

Sequence of Substance-P receptor (Homo sapiens) (P25103 whole entry): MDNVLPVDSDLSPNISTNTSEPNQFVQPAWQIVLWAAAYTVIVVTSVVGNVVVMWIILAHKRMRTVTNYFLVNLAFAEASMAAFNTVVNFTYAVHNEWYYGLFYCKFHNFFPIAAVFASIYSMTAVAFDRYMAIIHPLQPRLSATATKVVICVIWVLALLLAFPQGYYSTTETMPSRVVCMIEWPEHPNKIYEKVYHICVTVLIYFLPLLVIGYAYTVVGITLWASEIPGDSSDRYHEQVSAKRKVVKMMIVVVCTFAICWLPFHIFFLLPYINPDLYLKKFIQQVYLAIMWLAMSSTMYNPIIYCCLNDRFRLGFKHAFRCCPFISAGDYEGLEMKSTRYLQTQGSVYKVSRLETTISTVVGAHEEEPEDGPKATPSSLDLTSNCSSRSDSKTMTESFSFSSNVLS
Sequence of Histamine H3 receptor (Homo sapiens) (Q9Y5N1 whole entry): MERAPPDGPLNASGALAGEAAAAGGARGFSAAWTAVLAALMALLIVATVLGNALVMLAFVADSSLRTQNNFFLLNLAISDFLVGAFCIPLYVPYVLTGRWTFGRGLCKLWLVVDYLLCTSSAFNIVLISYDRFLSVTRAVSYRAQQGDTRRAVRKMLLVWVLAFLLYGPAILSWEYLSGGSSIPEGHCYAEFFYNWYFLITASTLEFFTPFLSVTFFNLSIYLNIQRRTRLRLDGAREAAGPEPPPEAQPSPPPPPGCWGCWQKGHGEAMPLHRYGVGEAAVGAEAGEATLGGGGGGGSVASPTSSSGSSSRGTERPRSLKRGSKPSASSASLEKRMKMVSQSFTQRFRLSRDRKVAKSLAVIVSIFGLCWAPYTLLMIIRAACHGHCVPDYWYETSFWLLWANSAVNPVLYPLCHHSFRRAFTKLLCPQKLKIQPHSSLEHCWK
Sequence of D(2) dopamine receptor (Homo sapiens) (P14416 whole entry): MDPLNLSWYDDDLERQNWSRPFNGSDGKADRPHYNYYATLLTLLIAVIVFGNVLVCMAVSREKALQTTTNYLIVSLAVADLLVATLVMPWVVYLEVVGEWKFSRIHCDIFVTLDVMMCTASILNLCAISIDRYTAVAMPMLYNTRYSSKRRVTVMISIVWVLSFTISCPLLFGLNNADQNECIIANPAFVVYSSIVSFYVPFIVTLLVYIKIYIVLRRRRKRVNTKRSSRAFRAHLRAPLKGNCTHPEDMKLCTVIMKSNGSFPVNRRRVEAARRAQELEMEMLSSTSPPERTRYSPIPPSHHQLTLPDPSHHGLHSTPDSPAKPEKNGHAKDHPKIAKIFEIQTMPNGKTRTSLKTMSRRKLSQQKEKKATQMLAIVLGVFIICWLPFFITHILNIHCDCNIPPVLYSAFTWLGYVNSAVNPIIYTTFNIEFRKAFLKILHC
Sequence of Dual specificity protein kinase CLK1 (Homo sapiens) (P49759 whole entry, looked up): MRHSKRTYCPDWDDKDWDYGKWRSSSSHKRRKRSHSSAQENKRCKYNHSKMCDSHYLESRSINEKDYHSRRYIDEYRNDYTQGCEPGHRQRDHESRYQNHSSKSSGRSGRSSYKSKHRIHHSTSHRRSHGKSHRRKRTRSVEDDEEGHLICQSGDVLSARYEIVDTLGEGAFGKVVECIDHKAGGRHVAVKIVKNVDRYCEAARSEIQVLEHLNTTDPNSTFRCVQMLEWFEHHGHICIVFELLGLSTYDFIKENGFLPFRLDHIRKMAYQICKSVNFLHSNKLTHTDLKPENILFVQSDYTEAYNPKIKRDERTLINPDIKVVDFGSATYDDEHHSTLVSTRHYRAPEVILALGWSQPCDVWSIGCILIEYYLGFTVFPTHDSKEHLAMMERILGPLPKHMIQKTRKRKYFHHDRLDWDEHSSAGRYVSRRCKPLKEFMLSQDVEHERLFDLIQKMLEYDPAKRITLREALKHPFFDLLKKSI
Sequence of Activin receptor type-1B (Homo sapiens) (P36896 whole entry): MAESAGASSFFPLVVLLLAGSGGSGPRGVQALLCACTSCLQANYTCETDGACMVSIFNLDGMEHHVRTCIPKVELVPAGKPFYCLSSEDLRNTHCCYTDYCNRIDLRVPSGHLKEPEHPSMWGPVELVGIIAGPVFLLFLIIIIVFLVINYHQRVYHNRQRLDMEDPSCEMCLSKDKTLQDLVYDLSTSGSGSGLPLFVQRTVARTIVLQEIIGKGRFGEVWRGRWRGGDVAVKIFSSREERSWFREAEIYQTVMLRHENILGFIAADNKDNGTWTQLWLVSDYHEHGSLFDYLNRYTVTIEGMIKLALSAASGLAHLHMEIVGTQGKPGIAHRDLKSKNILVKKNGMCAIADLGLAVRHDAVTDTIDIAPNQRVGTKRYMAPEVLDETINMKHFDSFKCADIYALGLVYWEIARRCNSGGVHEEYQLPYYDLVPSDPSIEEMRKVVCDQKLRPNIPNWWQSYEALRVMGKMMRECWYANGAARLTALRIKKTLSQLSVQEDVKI
Sequence of Calcium/calmodulin-dependent protein kinase kinase 1 (Homo sapiens) (Q8N5S9 whole entry, looked up): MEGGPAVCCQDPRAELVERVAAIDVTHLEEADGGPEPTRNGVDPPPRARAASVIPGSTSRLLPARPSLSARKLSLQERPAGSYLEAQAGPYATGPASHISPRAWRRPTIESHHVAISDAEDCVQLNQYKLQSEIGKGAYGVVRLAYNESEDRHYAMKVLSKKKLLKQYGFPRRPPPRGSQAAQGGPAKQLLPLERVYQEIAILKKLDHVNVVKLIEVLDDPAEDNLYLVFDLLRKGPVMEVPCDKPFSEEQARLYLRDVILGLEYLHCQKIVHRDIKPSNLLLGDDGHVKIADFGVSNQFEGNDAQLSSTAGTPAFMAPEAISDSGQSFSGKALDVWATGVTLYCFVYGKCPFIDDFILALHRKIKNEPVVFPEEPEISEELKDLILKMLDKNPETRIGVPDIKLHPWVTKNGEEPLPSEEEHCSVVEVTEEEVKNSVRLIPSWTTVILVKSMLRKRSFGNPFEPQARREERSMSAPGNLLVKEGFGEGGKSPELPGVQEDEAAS
Sequence of Serine/threonine-protein kinase OSR1 (Homo sapiens) (O95747 2-527 limits assumed): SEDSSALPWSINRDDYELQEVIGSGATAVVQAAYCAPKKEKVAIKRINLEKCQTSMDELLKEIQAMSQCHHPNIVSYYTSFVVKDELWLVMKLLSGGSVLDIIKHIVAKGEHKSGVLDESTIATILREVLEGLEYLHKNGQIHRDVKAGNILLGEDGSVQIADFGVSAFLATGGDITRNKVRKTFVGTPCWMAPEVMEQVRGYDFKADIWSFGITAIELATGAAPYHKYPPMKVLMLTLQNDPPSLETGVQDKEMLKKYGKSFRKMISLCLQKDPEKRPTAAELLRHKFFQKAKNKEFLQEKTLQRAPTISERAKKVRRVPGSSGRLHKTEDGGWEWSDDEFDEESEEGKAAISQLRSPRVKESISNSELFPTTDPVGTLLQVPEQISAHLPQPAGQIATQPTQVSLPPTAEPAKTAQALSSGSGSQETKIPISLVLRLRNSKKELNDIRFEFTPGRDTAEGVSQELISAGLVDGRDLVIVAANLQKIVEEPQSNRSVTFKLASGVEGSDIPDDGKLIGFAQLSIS
Sequence of Myosin light chain kinase family member 4 (Homo sapiens) (Q86YV6 whole entry): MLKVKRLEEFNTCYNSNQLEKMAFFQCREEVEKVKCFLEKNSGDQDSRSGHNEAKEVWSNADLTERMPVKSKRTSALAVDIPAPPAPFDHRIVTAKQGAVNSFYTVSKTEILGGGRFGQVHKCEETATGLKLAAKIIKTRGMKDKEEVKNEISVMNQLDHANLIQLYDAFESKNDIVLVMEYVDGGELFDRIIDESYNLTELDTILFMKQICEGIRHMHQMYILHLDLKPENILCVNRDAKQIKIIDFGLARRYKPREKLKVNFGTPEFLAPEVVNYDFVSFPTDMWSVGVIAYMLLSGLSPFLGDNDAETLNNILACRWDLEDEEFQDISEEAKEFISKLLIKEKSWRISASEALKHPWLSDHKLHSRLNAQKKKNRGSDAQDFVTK
Sequence of Serine/threonine-protein kinase D3 (Homo sapiens) (O94806 whole entry): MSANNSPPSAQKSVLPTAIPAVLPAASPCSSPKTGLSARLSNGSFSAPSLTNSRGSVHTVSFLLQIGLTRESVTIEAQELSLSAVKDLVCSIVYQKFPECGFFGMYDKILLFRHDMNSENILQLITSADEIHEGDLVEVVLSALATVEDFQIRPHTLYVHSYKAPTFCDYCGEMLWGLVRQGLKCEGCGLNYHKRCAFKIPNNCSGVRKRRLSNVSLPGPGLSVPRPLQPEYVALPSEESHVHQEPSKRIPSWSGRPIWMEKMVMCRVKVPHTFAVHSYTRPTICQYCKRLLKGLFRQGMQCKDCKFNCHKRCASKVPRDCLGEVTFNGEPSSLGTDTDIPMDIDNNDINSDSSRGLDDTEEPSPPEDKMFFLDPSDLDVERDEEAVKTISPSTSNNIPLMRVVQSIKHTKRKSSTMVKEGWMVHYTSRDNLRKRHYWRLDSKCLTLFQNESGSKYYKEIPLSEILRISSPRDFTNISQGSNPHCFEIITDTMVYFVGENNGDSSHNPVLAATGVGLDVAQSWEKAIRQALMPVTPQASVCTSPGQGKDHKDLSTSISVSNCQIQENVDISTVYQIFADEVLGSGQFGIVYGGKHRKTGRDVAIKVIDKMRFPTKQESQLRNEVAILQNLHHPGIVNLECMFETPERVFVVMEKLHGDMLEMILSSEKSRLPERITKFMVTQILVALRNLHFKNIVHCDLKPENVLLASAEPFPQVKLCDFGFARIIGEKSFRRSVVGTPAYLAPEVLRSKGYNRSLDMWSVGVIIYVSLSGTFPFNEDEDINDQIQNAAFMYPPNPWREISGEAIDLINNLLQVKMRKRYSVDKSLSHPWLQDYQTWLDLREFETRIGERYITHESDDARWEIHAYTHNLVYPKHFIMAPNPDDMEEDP
Sequence of Serine/threonine-protein kinase pim-2 (Homo sapiens) (Q9P1W9 whole entry, looked up): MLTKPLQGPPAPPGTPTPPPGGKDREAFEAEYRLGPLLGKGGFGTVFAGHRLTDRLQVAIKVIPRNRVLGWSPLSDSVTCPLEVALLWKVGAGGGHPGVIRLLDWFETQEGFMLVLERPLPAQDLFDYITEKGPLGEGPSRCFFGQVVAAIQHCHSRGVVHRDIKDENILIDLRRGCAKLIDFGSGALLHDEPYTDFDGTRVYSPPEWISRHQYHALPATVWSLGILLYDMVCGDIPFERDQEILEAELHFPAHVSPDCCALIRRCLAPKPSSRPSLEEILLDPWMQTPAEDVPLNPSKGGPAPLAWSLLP

SMILES: O=C(N1CCS(=O)(=O)CC1)N1C[C@H](c2ccc(OC(F)(F)F)cc2)C[C@H](c2nc(C3CC3)no2)C1 [BAY-386]
- % Inhibition of Control Agonist Response (Mean n=2) [1]: -0.3%
- % of Control Agonist Response (Mean n=2) [1]: 3.5%
- % Inhibition of Control Agonist Response (Mean n=2) [2]: 6.6%
- % of Control Agonist Response (Mean n=2) [2]: 4%
- % Inhibition of Control Agonist Response (Mean n=2) [3]: -3.7%
- % of Control Agonist Response (Mean n=2) [3]: 6.2%
- % Inhibition of Control Agonist Response (Mean n=2) [4]: 23.3%
- % of Control Agonist Response (Mean n=2) [4]: 1.8%
- % Inhibition of Control Agonist Response (Mean n=2) [5]: -8%
- % of Control Agonist Response (Mean n=2) [5]: 4.5%
- residual activity [6]: 92%
- residual activity [7]: 100%
- residual activity [8]: 100%
- residual activity [9]: 79%
- residual activity [10]: 100%
- residual activity [11]: 100%
- residual activity [12]: 100%
- residual activity [13]: 88%
- residual activity [14]: 98%
- residual activity [15]: 100%
- residual activity [16]: 100%
- residual activity [17]: 100%
- residual activity [18]: 97%
- residual activity [19]: 100%
- residual activity [20]: 95%
- residual activity [21]: 100%
- residual activity [22]: 100%
- residual activity [23]: 100%
- residual activity [24]: 89%
- residual activity [25]: 100%
- residual activity [26]: 87%
- residual activity [27]: 100%
- residual activity [28]: 100%
- residual activity [29]: 100%
- residual activity [30]: 100%
- residual activity [31]: 100%
- residual activity [32]: 95%
- inhibition [33]: -0.77%
- inhibition [34]: 11.6%

SMILES: Cc1noc([C@H]2C[C@@H](c3ccc(C(F)(F)F)cc3)CN(C(=O)N3CCS(=O)(=O)C3)C2)n1 [BAY-448]
- % Inhibition of Control Agonist Response (Mean n=2) [1]: -8.5%
- % of Control Agonist Response (Mean n=2) [1]: 1.5%
- % Inhibition of Control Agonist Response (Mean n=2) [2]: 8.6%
- % of Control Agonist Response (Mean n=2) [2]: 3.1%
- % Inhibition of Control Agonist Response (Mean n=2) [3]: -4.2%
- % of Control Agonist Response (Mean n=2) [3]: 13.9%
- % Inhibition of Control Agonist Response (Mean n=2) [4]: 2.1%
- % of Control Agonist Response (Mean n=2) [4]: 0.3%
- % Inhibition of Control Agonist Response (Mean n=2) [5]: 0.6%
- % of Control Agonist Response (Mean n=2) [5]: -0.6%
- residual activity [6]: 100%
- residual activity [7]: 100%
- residual activity [8]: 100%
- residual activity [9]: 100%
- residual activity [10]: 85%
- residual activity [11]: 100%
- residual activity [12]: 100%
- residual activity [13]: 100%
- residual activity [14]: 100%
- residual activity [15]: 86%
- residual activity [16]: 90%
- residual activity [17]: 100%
- residual activity [18]: 100%
- residual activity [19]: 100%
- residual activity [20]: 100%
- residual activity [21]: 100%
- residual activity [22]: 100%
- residual activity [23]: 100%
- residual activity [24]: 100%
- residual activity [25]: 82%
- residual activity [26]: 91%
- residual activity [27]: 89%
- residual activity [28]: 100%
- residual activity [29]: 95%
- residual activity [30]: 100%
- residual activity [31]: 100%
- residual activity [32]: 100%
- inhibition [33]: 21.8%
- inhibition [34]: 10.5%
